Values of other authors, collected in PubChem BioAssay AID1259409 (Chemical Carcinogenesis Research Information System (CCRIS), 2018).

Test system: rodent chemically induced tumor inhibition, incidence and multiplicity
Experiment: CCRIS tumor inhibitor studies
Settings: Dose [Inhibitor]: 0, Promoter: NONE USED

SMILES	tumour outcome (control, treated, inhibition, significance) (Carcinogen: ETHYL CARBAMATE, 51-79-6, 0.25 MG/G IN 0.005 ML OF 0.9% SALINE ADMINISTERED 30 MIN PRIOR TO CARCINOGEN DOSE (STUDY DURATION: 26 WK), Route [Inhibitor]: INTRAPERITONEAL, Species: MOUSE, Strain/Sex: STRAIN-A/FEMALE, Target Tissue: Type of Lesion: LUNG: ADENOMA, Dose [Carcinogen]: 0.5 MG/G ONCE)	tumour outcome (control, treated, inhibition, significance) (Carcinogen: ETHYL CARBAMATE, 51-79-6, 0.25 MG/G IN 0.005 ML OF 0.9% SALINE FIRST DOSE ADMINISTERED 30 MIN PRIOR TO CARCINOGEN DOSE FOLLOWED BY A SECOND DOS, Route [Inhibitor]: INTRAPERITONEAL, Species: MOUSE, Strain/Sex: STRAIN-A/FEMALE, Target Tissue: Type of Lesion: LUNG: ADENOMA, Dose [Carcinogen]: 0.25 MG/G ONCE)	tumour outcome (control, treated, inhibition, significance) (Carcinogen: ETHYL CARBAMATE, 51-79-6, 0.25 MG/G IN 0.005 ML OF 0.9% SALINE FIRST DOSE ADMINISTERED 30 MIN PRIOR TO CARCINOGEN DOSE FOLLOWED BY A SECOND DOS, Route [Inhibitor]: INTRAPERITONEAL, Species: MOUSE, Strain/Sex: STRAIN-A/FEMALE, Target Tissue: Type of Lesion: LUNG: ADENOMA, Dose [Carcinogen]: 0.5 MG/G ONCE)	tumour outcome (control, treated, inhibition, significance) (Carcinogen: ETHYL CARBAMATE, 51-79-6, 0.5 MG/G IN 0.01 ML OF 0.9% SALINE ADMINISTERED 30 MIN PRIOR TO CARCINOGEN DOSE (STUDY DURATION: 7 MO), Route [Inhibitor]: INTRAPERITONEAL, Species: MOUSE, Strain/Sex: B6C3F1/MALE, Target Tissue: Type of Lesion: LIVER: HEPATOMA, Dose [Carcinogen]: 0.5 MG/G ONCE)	tumour outcome (control, treated, inhibition, significance) (Carcinogen: ETHYL CARBAMATE, 51-79-6, 0.5 MG/G IN 0.01 ML OF 0.9% SALINE ADMINISTERED 30 MIN PRIOR TO CARCINOGEN DOSE (STUDY DURATION: 8 MO), Route [Inhibitor]: INTRAPERITONEAL, Species: MOUSE, Strain/Sex: B6C3F1/MALE, Target Tissue: Type of Lesion: LIVER: HEPATOMA, Dose [Carcinogen]: 0.125 MG/G ONCE)	tumour outcome (control, treated, inhibition, significance) (Carcinogen: ETHYL CARBAMATE, 51-79-6, 0.5 MG/G IN 0.01 ML OF 0.9% SALINE ADMINISTERED 30 MIN PRIOR TO CARCINOGEN DOSE (STUDY DURATION: 8 MO), Route [Inhibitor]: INTRAPERITONEAL, Species: MOUSE, Strain/Sex: B6C3F1/MALE, Target Tissue: Type of Lesion: LIVER: HEPATOMA, Dose [Carcinogen]: 0.25 MG/G ONCE)	tumour outcome (control, treated, inhibition, significance) (Carcinogen: ETHYL CARBAMATE, 51-79-6, 0.5 MG/G IN 0.01 ML OF 0.9% SALINE ADMINISTERED 30 MIN PRIOR TO CARCINOGEN DOSE (STUDY DURATION: 12 MO), Route [Inhibitor]: INTRAPERITONEAL, Species: MOUSE, Strain/Sex: B6C3F1/FEMALE, Target Tissue: Type of Lesion: HARDERIAN GLAND: TUMOR, Dose [Carcinogen]: 0.5 MG/G ONCE)	tumour outcome (control, treated, inhibition, significance) (Carcinogen: ETHYL CARBAMATE, 51-79-6, 0.5 MG/G IN 0.01 ML OF 0.9% SALINE ADMINISTERED 30 MIN PRIOR TO CARCINOGEN DOSE (STUDY DURATION: 12 MO), Route [Inhibitor]: INTRAPERITONEAL, Species: MOUSE, Strain/Sex: B6C3F1/FEMALE, Target Tissue: Type of Lesion: LIVER: HEPATOMA, Dose [Carcinogen]: 0.5 MG/G ONCE)	tumour outcome (control, treated, inhibition, significance) (Carcinogen: ETHYL CARBAMATE, 51-79-6, 0.5 MG/G IN 0.01 ML OF 0.9% SALINE ADMINISTERED 30 MIN PRIOR TO CARCINOGEN DOSE (STUDY DURATION: 12 MO), Route [Inhibitor]: INTRAPERITONEAL, Species: MOUSE, Strain/Sex: B6C3F1/FEMALE, Target Tissue: Type of Lesion: LUNG: ADENOMA, Dose [Carcinogen]: 0.5 MG/G ONCE)	tumour outcome (control, treated, inhibition, significance) (Carcinogen: VINYL CARBAMATE, 15805-73-9, 0.25 MG/G IN 0.005 ML OF 0.9% SALINE ADMINISTERED 30 MIN PRIOR TO CARCINOGEN DOSE (STUDY DURATION: 26 WK), Route [Inhibitor]: INTRAPERITONEAL, Species: MOUSE, Strain/Sex: STRAIN-A/FEMALE, Target Tissue: Type of Lesion: LUNG: ADENOMA, Dose [Carcinogen]: 0.025 MG/G ONCE)	tumour outcome (control, treated, inhibition, significance) (Carcinogen: VINYL CARBAMATE, 15805-73-9, 0.5 MG/G IN 0.005 ML OF 0.9% SALINE ADMINISTERED 30 MIN PRIOR TO CARCINOGEN DOSE (STUDY DURATION: 26 WK), Route [Inhibitor]: INTRAPERITONEAL, Species: MOUSE, Strain/Sex: STRAIN-A/FEMALE, Target Tissue: Type of Lesion: LUNG: ADENOMA, Dose [Carcinogen]: 0.025 MG/G ONCE)	tumour outcome (control, treated, inhibition, significance) (Carcinogen: VINYL CARBAMATE, 15805-73-9, 0.5 MG/G IN 0.01 ML OF 0.9% SALINE ADMINISTERED 30 MIN PRIOR TO CARCINOGEN DOSE (STUDY DURATION: 7 MO), Route [Inhibitor]: INTRAPERITONEAL, Species: MOUSE, Strain/Sex: B6C3F1/MALE, Target Tissue: Type of Lesion: LIVER: HEPATOMA, Dose [Carcinogen]: 0.025 MG/G ONCE)	tumour outcome (control, treated, inhibition, significance) (Carcinogen: VINYL CARBAMATE, 15805-73-9, 0.5 MG/G IN 0.01 ML OF 0.9% SALINE ADMINISTERED 30 MIN PRIOR TO CARCINOGEN DOSE (STUDY DURATION: 8 MO), Route [Inhibitor]: INTRAPERITONEAL, Species: MOUSE, Strain/Sex: B6C3F1/MALE, Target Tissue: Type of Lesion: LIVER: HEPATOMA, Dose [Carcinogen]: 0.003 MG/G ONCE)	tumour outcome (control, treated, inhibition, significance) (Carcinogen: VINYL CARBAMATE, 15805-73-9, 0.5 MG/G IN 0.01 ML OF 0.9% SALINE ADMINISTERED 30 MIN PRIOR TO CARCINOGEN DOSE (STUDY DURATION: 8 MO), Route [Inhibitor]: INTRAPERITONEAL, Species: MOUSE, Strain/Sex: B6C3F1/MALE, Target Tissue: Type of Lesion: LIVER: HEPATOMA, Dose [Carcinogen]: 0.008 MG/G ONCE)	tumour outcome (control, treated, inhibition, significance) (Carcinogen: VINYL CARBAMATE, 15805-73-9, 0.5 MG/G IN 0.01 ML OF 0.9% SALINE ADMINISTERED 30 MIN PRIOR TO CARCINOGEN DOSE (STUDY DURATION: 12 MO), Route [Inhibitor]: INTRAPERITONEAL, Species: MOUSE, Strain/Sex: B6C3F1/FEMALE, Target Tissue: Type of Lesion: HARDERIAN GLAND: TUMOR, Dose [Carcinogen]: 0.025 MG/G ONCE)	tumour outcome (control, treated, inhibition, significance) (Carcinogen: VINYL CARBAMATE, 15805-73-9, 0.5 MG/G IN 0.01 ML OF 0.9% SALINE ADMINISTERED 30 MIN PRIOR TO CARCINOGEN DOSE (STUDY DURATION: 12 MO), Route [Inhibitor]: INTRAPERITONEAL, Species: MOUSE, Strain/Sex: B6C3F1/FEMALE, Target Tissue: Type of Lesion: LIVER: HEPATOMA, Dose [Carcinogen]: 0.025 MG/G ONCE)	tumour outcome (control, treated, inhibition, significance) (Carcinogen: VINYL CARBAMATE, 15805-73-9, 0.5 MG/G IN 0.01 ML OF 0.9% SALINE ADMINISTERED 30 MIN PRIOR TO CARCINOGEN DOSE (STUDY DURATION: 12 MO), Route [Inhibitor]: INTRAPERITONEAL, Species: MOUSE, Strain/Sex: B6C3F1/FEMALE, Target Tissue: Type of Lesion: LUNG: ADENOMA, Dose [Carcinogen]: 0.025 MG/G ONCE)	tumour outcome (control, treated, inhibition, significance) (Carcinogen: 7,12-DIMETHYLBENZ[A]ANTHRACENE, 57-97-6, 50 UG/ML IN DRINKING WATER FROM 40-90 D OF AGE THEN 0, 30 UG/ML FROM 90-180 D OF AGE AND 0, 20 UG/ML FROM 180-240 D O, 50 UG/ML IN DRINKING WATER FROM 40-90 D OF AGE THEN 0, 30 UG/ML FROM 90-180 D OF AGE AND 0, 20 UG/ML FROM 180-240 D O, Route [Inhibitor]: ORAL, Species: RAT, Strain/Sex: SPRAGUE DAWLEY/FEMALE, Target Tissue: Type of Lesion: MAMMARY GLAND: ADENOCARCINOMA, FIBROADENOMA, Dose [Carcinogen]: 5 MG IN 0.2 ML SESAME OIL 1/2 D FOR 12 D BEGINNING AT 50 D OF AGE)
NC(=S)S	100%, 100%, 0%, not calculated	100%, 100%, 0%, not calculated	100%, 100%, 0%, not calculated	26/26 (100%), 31/31 (100%), 0%, not calculated	24/24 (100%), 24/25 (96%), 4%, not calculated	17/17 (100%), 28/29 (97%), 3%, not calculated	40%, 15%, 62%, not calculated	68%, 19%, 72%, not calculated	48%, 12%, 75%, not calculated	100%, 100%, 0%, not calculated	100%, 100%, 0%, not calculated	24/24 (100%), 29/29 (100%), 0%, not calculated	29/29 (100%), 27/27 (100%), 0%, not calculated	23/23 (100%), 27/27 (100%), 0%, not calculated	68%, 22%, 68%, not calculated	96%, 30%, 69%, not calculated	54%, 9%, 83%, not calculated	
[Mg+2]																		100%, 46%, 54%, p<0.001
